Experimental data as given in the NIST ThermoML archive (doi:10.1021/acs.jced.8b00517).
Numbers after ± are expanded uncertainties.

What was measured:
[1] = Liquid; for mass density: 293.15 K, 101.33 kPa, Vibrating tube method; for vapor or sublimation pressure: Ebulliometric method (Recirculating still)
[2] = refractive index (Na D-line) (dimensionless); settings: 293.15 K; 101.33 kPa; Liquid; Standard Abbe refractometry
[3] = Boiling temperature at pressure P; settings: Liquid, Ebulliometric method (Recirculating still)

Row | SMILES | mass density [1] | refractive index [2] | vapor or sublimation pressure ([1]; 343.15 K) | vapor or sublimation pressure ([1]; 358.15 K) | vapor or sublimation pressure ([1]; 363.15 K) | Boiling temperature at pressure P ([3]; 19.9 kPa) | Boiling temperature at pressure P ([3]; 34.33 kPa) | Boiling temperature at pressure P ([3]; 39.89 kPa) | Boiling temperature at pressure P ([3]; 49.89 kPa) | Boiling temperature at pressure P ([3]; 58.58 kPa) | Boiling temperature at pressure P ([3]; 69.3 kPa) | Boiling temperature at pressure P ([3]; 79.88 kPa) | Boiling temperature at pressure P ([3]; 89.88 kPa) | Boiling temperature at pressure P ([3]; 98.88 kPa)
1 | CC(C)CO [2-methyl-1-propanol] | 801.49 ± 2 kg/m3 | 1.3959 ± 0.0009 |  |  |  |  |  |  |  |  |  |  |  | 
2 | CCCC(C)=O [pentan-2-one] | 805.86 ± 2 kg/m3 | 1.3906 ± 0.0009 | 34.4 ± 0.32 kPa | 58.64 ± 0.39 kPa | 69.36 ± 0.46 kPa | 56.44 ± 0.22 °C | 70.32 ± 0.22 °C | 74.40 ± 0.19 °C | 80.62 ± 0.18 °C | 85.30 ± 0.17 °C | 90.4 ± 0.17 °C | 94.76 ± 0.17 °C | 98.53 ± 0.16 °C | 101.59 ± 0.16 °C
